Measurements taken from patent US5824647A, “Chemotactic wound healing peptides” (priority 1995, dated 1998).

Assays:
[1] = tested on: infant foreskin fibroblasts; assay: Fibroblast chemotaxis in modified Boyden chambers (incl. checkerboard and deactivation studies); assay type: cell-based, human; conditions: for fibroblast chemotaxis / migration (in words): peptide in lower compartment of modified Boyden chamber; for Mean Fibroblasts per 20 OIF + SEM: Experiment 1, lower compartment: TGF-β1 50 pg/ml, peptide 368-374 1.4 × 10^-5 M, peptide 364-378 6.7 × 10^-7 M, fibronectin 20 μg/ml
Description: Target cells used in in vitro chemotaxis assays were infant foreskin fibroblasts obtained by establishing monolayer cultures from explants of tissue. Cells were maintained in Eagle's minimum essential medium (MEM) supplemented with non-essential amino acids, antibiotics, 50 ug/ml ascorbic acid, and 9% fetal calf serum (FCS). Cells were passaged by trypsinization every 3-5 days.
Infant foreskin fibroblasts were harvested from monolayer culture by gentle trypsinization, washed twice in serum-free Eagles's MEM and adjusted to a final concentration of 250,000 cells/ml. The cell suspension (0.4 ml) was added to the upper compartments of blind well modified Boyden chemotaxis chambers. The peptides of the invention being assayed for chemotactic activity were solubilized in glycylglycine (0.015M) buffered NaCl (0.14M), pH 7.2, hereinafter referred to as GGBS, and diluted 50% with serum-free MEM. Test substances were added to the lower compartment of the chemotaxis chambers. Gelatin-treated polycarbonate filters (8 micron pore size) were interposed between the lowest compartment and the upper cell compartment. Loaded chambers were incubated at 37° C. in a humidified atmosphere containing 5% CO2 for 150 minutes. After incubation, the chambers were disassembled, the filters removed, stained with hematoxylin, and mounted on glass cover slips. Fibroblast chemotaxis was quantitated by counting the number of fibroblasts in 20 oil immersion fields (OIF) that migrated and adhered to the lower surface of each filter. Samples were tested in quadruplicate and results are expressed as mean number of fibroblasts per 20 OIF±standard error of the mean (SEM). Chemotaxis neutralization studies were performed by adding TGF-β1 or fibronectin to the upper cell compartment and testing for effects on fibroblast migration to the TGF-β peptides.
Zigmond-Hirsch checkerboard analysis (Zigmond & Hirsch, J. Exptl. Med. 137:387, 1972) was performed to determine whether the 7-mer peptide 368-374 (Val Tyr Tyr Val Gly Arg Lys) induced chemotaxis of fibroblasts, monocytes and neutrophils.
Deactivation studies were utilized to determine whether the peptides of the invention containing the 7-mer peptide amino acid sequence induced chemotaxis via cellular receptors and mechanisms utilized by intact TGF-β.

[2] = tested on: human peripheral blood monocytes; assay: Monocyte chemotaxis in modified Boyden chambers; assay type: cell-based; conditions: peptide in lower compartment of modified Boyden chamber
Excerpt: (§1) Human peripheral blood neutrophils and monocytes, isolated from whole blood using standard techniques may also be used in the chemotaxis assays, in a manner similar to infant foreskin fibroblasts, to measure the chemotactic activity of the peptides towards inflammatory cells. Such cells may also be maintained in supplemented MEM as above, to which 5-10% FCS may be added. When using neutrophils and monocytes, instead of fibroblasts, the polycarbonate filters used in the modified Boyden chambers had pore sizes of 2 and 3 microns, respectively. As above, all assays were carried out in quadruplicate.
The following 7-mer peptides (peptides 368-374, corresponding to amino acids 368-374 of human TGF-β1): VYYVGRK (SEQ ID NO. 1), LYYIGKT (SEQ ID NO. 2), LYYVGRT (SEQ ID NO. 3), IYYVGRN (SEQ ID NO. 4) and IYYVGRT (SEQ ID NO. 5) were synthesized by the Merrifield technique, purified by HPLC, and tested at different concentrations in the same assay for their ability to stimulate chemotaxis of human peripheral blood monocytes in vitro modified Boyden chambers.

[3] = tested on: Human peripheral blood neutrophils; assay: Neutrophil chemotaxis in modified Boyden chambers; assay type: cell-based; conditions: peptide in lower compartment of modified Boyden chamber
Excerpt: as §1

[4] = tested on: infant foreskin fibroblasts; assay: Collagen production by fibroblasts (modified Peterofsky-Diegelman assay); assay type: cell-based, human; conditions: [3H]proline incorporation into collagenase-sensitive protein
Description: The peptides of the invention were also found to stimulate collagen production by fibroblasts. Collagen production by fibroblasts in response to the peptides of the present invention was measured utilizing a modified Peterofsky-Diegelman assay. The assay is used to determine whether the peptides of the invention stimulate or inhibit collagen production by fibroblasts.
Low passage (4-12 subpassages) infant foreskin fibroblasts were plated out at a density of 10^5 cells/well in Falcon 3008 multiwell plates in complete maintenance medium containing 10% FCS. After cells reached confluency (72 hr), the medium was changed daily for 3 days, each time being replaced with serum-free maintenance medium containing fresh ascorbic acid. Samples (50 μl) were added to triplicate wells containing 450 μl serum-free MEM supplemented with fresh ascorbic acid and [^3 H]-proline (sp. act. 20 Ci/mmole), but no non-essential amino acids. After an additional 24 hr of culture, supernatants were reacted with protease-free bacterial collagenase to digest all collagen. Similar aliquots of unreacted supernatants and bacterial collagenase-treated supernatants were precipitated with cold 10% trichloroacetic acid (TCA) and were centrifuged for 5 minutes in a Beckman microfuge. Aliquots of the supernatants, after TCA precipitated proteins were pelleted, were placed in vials containing Hydrofluor and then were counted in a scintillation counter. CPM from TCA precipitated supernatants not reacted with bacterial collagenase were subtracted from each culture. The resulting CPM was a reflection of the collagen produced by that culture.
A modified Peterofsky-Diegelmann assay was used to screen peptide samples for their ability to stimulate or inhibit collagen production. Low passage (4-12 subpassages) infant foreskin fibroblast were plated out at a density of 10^5 cells/well of Falcon 3008 multiwell plates in complete maintenance medium containing 10% FCS. After cells reached confluency (72 hr) the medium was changed daily for 3 days, each time being replaced with serum-free maintenance medium containing fresh ascorbic acid. Samples ([…]) were added to triplicate wells containing […] serum free MEM supplemented with fresh ascorbic acid and [^3 H]-proline (sp. act. 20 Ci/mmole), but no non-essential amino acids. After an additional 24 hours of culture, supernatants were reacted with protease-free bacterial collagenase to digest all collagen. Similar aliquots of unreacted supernatants and bacterial collagenase-treated supernatants were precipitated with cold 10% trichloroacetic acid (TCA) and were centrifuged for 5 minutes in a Beckman microfuge. Aliquots of the supernatants, after TCA precipitated proteins were pelleted, were placed in vials containing Hydrofluor and then were counted in a scintillation counter. CPM from TCA precipitated supernatants not reacted with bacterial collagenase were subtracted from each culture. The resulting CPM was a reflection of the collagen produced by that culture.
Collagen production was measured following administration of the various 7-mer peptides 368-374 (SEQ ID NOs. 1-5) to fibroblasts. Peptides […] (SEQ ID NO. 1), LYYIGKT (SEQ ID NO. 2), LYYVGRT (SEQ ID NO. 3), IYYVGRN (SEQ ID NO. 4) and IYYVGRT (SEQ ID NO. 5) were synthesized by the Merrifield technique, purified by HPLC, and tested at different concentrations in the same assay for their ability to stimulate production of collagen in confluent cultures of infant foreskin fibroblasts. Collagen production was measured by incorporation of [^3 H]proline into collagenase-sensitive protein. All samples were tested in triplicate, and values represent the mean of triplicate determinations. Data are expressed as "% stimulation" of collagen production relative to control production in cultures with plain culture medium only added. […]

[5] = Media added to upper compartment
[6] = TGF-β1 (50 pg/ml) added to upper compartment

| Substance | fibroblast chemotaxis / migration (in words) [1] | monocyte chemotaxis / migration (in words) [2] | neutrophil chemotaxis / migration (in words) [3] | Mean Fibroblasts per 20 OIF + SEM [1, 5] [Fibroblasts per 20 OIF] | Mean Fibroblasts per 20 OIF + SEM [1, 6] [Fibroblasts per 20 OIF] | collagen production by fibroblasts (in words) [4] |
| --- | --- | --- | --- | --- | --- | --- |
| 280-293: peptide derived from the N-terminal half of TGF-β1, residues 280-293 (ALDTNYCFSSTEKN; printed: Ala Leu Asp Thr Asn Tyr Cys Phe Ser Ser Thr Glu Lys Asn) [Peptide 280-293] | none of the peptides derived from the N-terminal half of TGF-β1 (peptides 280-293, 296-322 and 328-354) were able to induce migration | none of the peptides derived from the N-terminal half of TGF-β1 (peptides 280-293, 296-322 and 328-354) were able to induce migration | none of the peptides derived from the N-terminal half of TGF-β1 (peptides 280-293, 296-322 and 328-354) were able to induce migration |  |  |  |
| 296-322: peptide derived from the N-terminal half of TGF-β1, residues 296-322 (VRQLYIDFRKDLGWKWIHEPKGYHANF; printed: Val Arg Gln Leu Tyr Ile Asp Phe Arg Lys Asp Leu Gly Trp Lys Trp Ile His Glu Pro Lys Gly Tyr His Ala Asn Phe) [Peptide 296-322] | none of the peptides derived from the N-terminal half of TGF-β1 (peptides 280-293, 296-322 and 328-354) were able to induce migration | none of the peptides derived from the N-terminal half of TGF-β1 (peptides 280-293, 296-322 and 328-354) were able to induce migration | none of the peptides derived from the N-terminal half of TGF-β1 (peptides 280-293, 296-322 and 328-354) were able to induce migration |  |  |  |
| 328-354: peptide derived from the N-terminal half of TGF-β1, residues 328-354 (PYIWSLDTQYSKVLALYNQHNPGASAA; printed: Pro Tyr Ile Trp Ser Leu Asp Thr Gln Tyr Ser Lys Val Leu Ala Leu Tyr Asn Gln His Asn Pro Gly Ala Ser Ala Ala) [Peptide 328-354] | none of the peptides derived from the N-terminal half of TGF-β1 (peptides 280-293, 296-322 and 328-354) were able to induce migration | none of the peptides derived from the N-terminal half of TGF-β1 (peptides 280-293, 296-322 and 328-354) were able to induce migration | none of the peptides derived from the N-terminal half of TGF-β1 (peptides 280-293, 296-322 and 328-354) were able to induce migration |  |  |  |
| Fibronectin [reference compound] |  |  |  | 74 ± 2 | 71 ± 6 |  |
| IYYVGRN [7-mer peptide 368-374 homolog] | induced fibroblast chemotaxis at all of the concentration tested | induced monocyte chemotaxis at all of the concentrations tested |  |  |  | stimulated collagen production to some degree |
| IYYVGRT [7-mer peptide 368-374 homolog] | induced fibroblast chemotaxis at all of the concentration tested | induced monocyte chemotaxis at all of the concentrations tested |  |  |  | stimulated collagen production to some degree |
| LYYVGRT [7-mer peptide 368-374 homolog] | induced fibroblast chemotaxis at all of the concentration tested | induced monocyte chemotaxis at all of the concentrations tested |  |  |  | stimulated collagen production to some degree |
| PIVYYVGRKPKVEQLSNMIVRS (PIVYYVGRKPKVEQLSNMIVRS) [Peptide 366-387] | induced migration of fibroblasts, monocytes and neutrophils in a dose dependent fashion | induced migration of fibroblasts, monocytes and neutrophils in a dose dependent fashion | induced migration of fibroblasts, monocytes and neutrophils in a dose dependent fashion |  |  |  |
| TGF-β1: transforming growth factor β1, 50 pg/ml, chemoattractant control and deactivating agent [reference compound] |  |  |  | 7 ± 1 | 21 ± 2 |  |
| VPQALEPLPIVYYVGRKPKVEQLSN (VPQALEPLPIVYYVGRKPKVEQLSN) [Peptide 358-382] | induced migration of fibroblasts, monocytes and neutrophils in a dose dependent fashion | induced migration of fibroblasts, monocytes and neutrophils in a dose dependent fashion | induced migration of fibroblasts, monocytes and neutrophils in a dose dependent fashion |  |  |  |
| VSQDLEPLTILYYIGKTPKIEQLSNMIVKSC |  |  |  |  |  | stimulated collagen production |
